Tests used:
[1] = Stability of crystalline Form IX of Compound 1 in different solvents (XRPD after stirring); assay type: physicochemical; details: stirred at 40° C.; for Results (crystalline state by XRPD): 2 days
Experimental: Several samples of crystalline Form IX of Compound 1 in a suitable amount were taken, respectively added to 0.3-0.4 mL of a single solvent or a mixed solvent as shown in the following table, and stirred at 40° C. After stirring for 2 days, the samples were centrifuged. Solid in the samples was collected and its crystalline state was detected by XRPD.

[2] = Solid state stability of crystalline Form IX under high temperature, high humidity and strong light; assay type: physicochemical
Experimental: About 10 mg of crystalline Form IX of Compound 1 was weighed and placed on a bottom of a glass sample bottle to form a thin layer. For the samples placed under the conditions of 60° C. and room temperature/92.5% RH, the top of the bottles was covered with aluminum foil, and several holes were made in aluminum foil, which is ensure that the samples were fully exposed to the air in the environment; for the samples placed under strong light (5 Klx), the bottles were sealed with a screw cap. Another sample of 15 mg of crystalline Form IX was taken and placed according to the method as described above for detecting the crystalline form of the sample. The samples placed under different conditions were sampled and detected on day 5 and day 10, and the detection results were compared with the initial detection results on day 0.

[3] = High temperature 60° C. (opened), day 5
[4] = High temperature 60° C. (opened), day 5 and day 10
[5] = High temperature 60° C. (opened), day 10
[6] = Light 5KIx (closed), day 5 and day 10
[7] = Room temperature/92.5% RH (opened), day 5
[8] = Room temperature/92.5% RH (opened), day 5 and day 10
[9] = Room temperature/92.5% RH (opened), day 10

Appearance (2 days) ([1]; acetone): suspension | Results (crystalline state by XRPD) ([1]; acetone): crystalline | Appearance (2 days) ([1]; acetone-water (1:2)): suspension | Results (crystalline state by XRPD) ([1]; acetone-water (1:2)): crystalline | Appearance (2 days) ([1]; acetonitrile): suspension | Results (crystalline state by XRPD) ([1]; acetonitrile): crystalline | Appearance (2 days) ([1]; ethanol): suspension | Results (crystalline state by XRPD) ([1]; ethanol): crystalline | Appearance (2 days) ([1]; ethanol-water (3:1)): suspension | Results (crystalline state by XRPD) ([1]; ethanol-water (3:1)): crystalline | Appearance (2 days) ([1]; ethyl acetate): suspension | Results (crystalline state by XRPD) ([1]; ethyl acetate): crystalline | Appearance (2 days) ([1]; isopropanol): suspension | Results (crystalline state by XRPD) ([1]; isopropanol): crystalline | Appearance (2 days) ([1]; isopropanol-water (1:1)): suspension | Results (crystalline state by XRPD) ([1]; isopropanol-water (1:1)): crystalline | Appearance (2 days) ([1]; methanol): suspension | Results (crystalline state by XRPD) ([1]; methanol): crystalline | Appearance (2 days) ([1]; methanol-water (3:1)): suspension | Results (crystalline state by XRPD) ([1]; methanol-water (3:1)): crystalline | Appearance (2 days) ([1]; tetrahydrofuran): suspension | Results (crystalline state by XRPD) ([1]; tetrahydrofuran): crystalline | Content (%) [2, 3]: 100.64% | Total impurities (%) [2, 3]: 0.32% | Appearance [2, 4]: White | Crystalline Form [2, 4]: crystalline | Content (%) [2, 5]: 100.55% | Total impurities (%) [2, 5]: 0.33% | Content (%) ([2]; Light 5KIx (closed), day 5): 100.43% | Total impurities (%) ([2]; Light 5KIx (closed), day 5): 0.31% | Appearance [2, 6]: White | Crystalline Form [2, 6]: crystalline | Content (%) ([2]; Light 5KIx (closed), day 10): 101.10% | Total impurities (%) ([2]; Light 5KIx (closed), day 10): 0.32% | Content (%) [2, 7]: 101.05% | Total impurities (%) [2, 7]: 0.32% | Appearance [2, 8]: White | Crystalline Form [2, 8]: crystalline | Content (%) [2, 9]: 101.16% | Total impurities (%) [2, 9]: 0.32% | Appearance ([2]; day 0 (initial)): White | Content (%) ([2]; day 0 (initial)): 101.02% | Crystalline Form ([2]; day 0 (initial)): crystalline | Total impurities (%) ([2]; day 0 (initial)): 0.32%
SMILES: COc1ncc(-c2ccc3ncc(OCCN(C)C)c(=O)n3c2)cc1NS(=O)(=O)c1ccc(F)cc1Cl [crystalline Form IX of Compound 1]

Source: patent US10479789B2, “Pyrido[1,2-A]pyrimidone analog, crystal form thereof, intermediate thereof and preparation method therefor” (Chia Tai Tianqing Pharmaceutical Group Co., Ltd., priority 2015, dated 2019)
